According to US20260137662A1, “CD11B AGONISTS FOR TREATMENT OF AUTOIMMUNE DISEASE” (Rush University Medical Center, priority 2022, published 2026):

Assays:
[1] = system: MRL/lpr mice; assay: MRL/lpr mouse model of lupus and LN: alopecia and skin lesions; format: in vivo; conditions: for alopecia (nose area): Mrl/lpr mice
Excerpt: FIG. 13B illustrates percentage of skin effected by alopecia on the nose area of untreated mice (Ctrl), mice treated with a vehicle (Veh), and mice treated with LA1 (LA1). […] Bars show mean +/−SEM (n=5).
FIG. 13C illustrates lesion size (mm) in untreated mice (Ctrl), mice treated with a vehicle (Veh), and mice treated with LA1 (LA1). […] Bars show mean +/−SEM (n=5).
To evaluate the efficacy of LA1 as a treatment for LN, MRL/ipr mouse models were used. MRL/lpr mice develop high circulating levels of IFN-I, systemic inflammation and multi-organ pathology, including skin, vascular, and kidney damage, and LN. Thus, this genetic mouse model mimics several features of human lupus and LN.

[2] = system: TLR4 mediated pathways; assay: Relative gene expression in myeloid cells stimulated with LPS; format: cell-based; conditions: LPS (50ng/ml) and LA1 (20 uM) co-treatment, 4 hour
Experimental: FIG. 4A illustrates the relative gene expression of biomarker IL-1bin myeloid cells after 4 hour of treatment with vehicle DMSO (UT), LA1 (20 uM), LPS (50ng/ml), or LPS and LA1 co-treatment.
FIG. 4B illustrates the relative gene expression of biomarker IL-18 in myeloid cells after 4 hour of treatment with vehicle DMSO (UT), LA1 (20 uM), LPS (50ng/ml), or LPS and LA1 co-treatment.
FIG. 4C illustrates the relative gene expression of biomarker uPAR in myeloid cells after 4 hour of treatment with vehicle DMSO (UT), LA1 (20 uM), LPS (50ng/ml), or LPS and LA1 co-treatment.
FIG. 4D illustrates the relative gene expression of biomarker IL-6 in myeloid cells after 4 hour of treatment with vehicle DMSO (UT), LA1 (20 uM), LPS (50ng/ml), or LPS and LA1 co-treatment.
The impact of CD11b activation by LA1 on TLR4 mediated pathways was similarly assessed by stimulating myeloid cells with LPS, a known TLR4 stimulant, and co-treating with LA1.

[3] = system: LPS-treated wild type C57BL/6 mice; assay: Serum IL-6 in LPS-treated mice, oral LA1 dose response; format: in vivo; conditions: 4 hours
Experimental: FIG. 11 illustrates the concentration of biomarker IL-6 in wild type mice and wild type mice co-treated with various dose amounts of LPS and LA1 (0, 2, 10, 30, or 60 mg/kg). Each dot represents a unique sample. Bars show mean +/−SEM (n=4).
Administration of LPS to wild type C57BL/6 mice (WT) results in rapid elevation of pro-inflammatory mediators, such as IL-6, in murine sera. WT mice treated with LPS were used to study the dose-responsive efficacy of LA1 in reducing inflammatory cytokine levels in vivo. A single dose of LA 1 was orally administered to mice co-administered LPS. After 4 hours, sera was collected and used for ELISA.

For `O=C(O)c1ccc(-c2ccc(/C=C3\SC(=S)N(Cc4ccccc4)C3=O)o2)cc1` [LA1, (Z)-4-(5-((3-benzyl-4-oxo-2-thioxothiazolidin-5-ylidene)methyl)furan-2-yl)benzoic acid], the skin lesions ([1]; Mrl/lpr mice treated with LA1, co-treatment and delayed treatment) was “reduces clinical symptoms”, the “alopecia (nose area)” value ([1]; LA1 as co-treatment) was “reduction in alopecia” and the “alopecia (nose area)” value ([1]; LA1 treatment after 2-weeks of disease onset) was “reduction in alopecia”. The “expression of biomarker IL-1b” value [2] was “significantly decreased”, the “expression of biomarker IL-6” value [2] was “significantly decreased” and the “expression of biomarker IL-18” value [2] was “significantly decreased”. The “expression of biomarker uPAR” value [2] was “significantly decreased”, the “serum IL-6 levels versus non-LPS injected WT control” value ([3]; LA1 30 mg/kg oral) was “no difference” and the “serum IL-6 levels versus non-LPS injected WT control” value ([3]; LA1 60 mg/kg oral) was “no difference”. For the same compound, the “IL-6 levels in murine sera” value ([3]; single oral dose of LA1 (2, 10, 30, 60 mg/kg) co-administered with LPS, dose dependent) was “significantly reduced”.
